According to patent US6787128B2, “Structure-improving hair care agents” (Henkel Kommanditgesellschaft auf Aktien, priority 2000, dated 2004):
Marks after values point to notes of the source that are not given here.

Assays:
[1] = system: Human hair (Alkinco 6634); assay: HP-DSC keratin melting point of permanent-waved hair after 1% aqueous active substance, Alkinco 6634; conditions: treated 10 mins. with 1% aqueous solution of active substance, rinsed, dried
Text: (§1) HP-DSC (High-Pressure Differential Scanning Calorimetry)
(§2) Thermoanalytical investigations are particularly suitable for characterizing two-phase systems to which human hair fibers as fibrous keratins with their crystalline α-helix component and amorphous matrix component also belong. On the one hand, glass transitions and aging behavior of the amorphous matrix can be investigated, on the other hand the melting behavior of the crystalline helical phase provides important information. Thermoanalytical studies were described for the first time in 1899. The first differential thermoanalyses (DTA) of protein fibers were carried out towards the end of the fifties (F. Schwenker, J. H. Dusenbury, Text. Res. J. 1963, 30, pages 800 et seq; W. D. Felix, M. A. McDowall, H. Eyring, ibid. (1963), 33, pages 465 et seq). In the following years, various thermoanalytical measuring techniques, such as DTA, HP-DTA (high-pressure DTA) and DSC (differential scanning calorimetry) were applied to keratin fibers, for example to investigate the phenomenon of supercontraction, α-β-phase transitions of the helices or denaturing processes. Recently, the method of IIP-DSC was used to study keratin fibers, more particularly at the Deutsches Wollforschungsinstitut (German Wool Research Institute) in Aachen (F. J. Wortmann, H. Deutz, J. Appl. Polym. Sci. 1993, 48, pp. 137 et seq.). IIP-DSC rules out the problems associated with pyrolytic effects which occur in conventional DSC and the problems with data acquisition and interpretation by which DTA is attended. DSC measurements are carried out on keratins which are encapsulated with water in commercially obtainable pressure-tight measuring capsules. In the keratin/water system, a high water vapor pressure from which the HP-DSC analysis derives builds up in the encapsulated steel crucibles on heating to >100° C. […]
(§3) Accordingly, both structural and chemical states and changes in fiber keratins and particularly in human hair fibers can be detected by dynamic differential scanning calorimetry (DSC). Under precisely defined test conditions, the processes detectable by calorimetry in human hair fibers can be recorded in the form of thermograms and used in regard to peak positions, structures and areas as an indicator for influencing order/disorder transitions through changes in inner and/or outer parameters produced, for example, by cosmetic treatment of the hair fibers. In other words, information on the strength of or damage to human hair fibers can be obtained from the endothermal peaks recorded in the thermogram of human hair fibers on the basis of peak position (transition point) and peak area (transition enthalpy). […]

[2] = system: Human hair (Alkinco 6633); assay: HP-DSC keratin melting point of permanent-waved hair after 1% aqueous active substance, Alkinco 6633; conditions: for Keratin melting point for Alkinco 6633: permanent-waved hair, treated 10 mins. with 1% aqueous solution of active substance, rinsed, dried
Text: as §1
Thermoanalytical investigations are particularly suitable for characterizing two-phase systems to which human hair fibers as fibrous keratins with their crystalline α-helix component and amorphous matrix component also belong. On the one hand, glass transitions and aging behavior of the amorphous matrix can be investigated, on the other hand the melting behavior of the crystalline helical phase provides important information. Thermoanalytical studies were described for the first time in 1899. The first differential thermoanalyses (DTA) of protein fibers were carried out towards the end of the fifties (F. Schwenker, J. H. Dusenbury, Text. Res. J. […], 30, pages 800 et seq; W. D. Felix, M. A. McDowall, H. Eyring, ibid. (1963), 33, pages 465 et seq). In the following years, various thermoanalytical measuring techniques, such as DTA, HP-DTA (high-pressure DTA) and DSC (differential scanning calorimetry) were applied to keratin fibers, for example to investigate the phenomenon of supercontraction, α-β-phase transitions of the helices or denaturing processes. Recently, the method of IIP-DSC was used to study keratin fibers, more particularly at the Deutsches Wollforschungsinstitut (German Wool Research Institute) in Aachen (F. J. Wortmann, H. Deutz, J. Appl. Polym. Sci. 1993, 48, pp. 137 et seq.). IIP-DSC rules out the problems associated with pyrolytic effects which occur in conventional DSC and the problems with data acquisition and interpretation by which DTA is attended. DSC measurements are carried out on keratins which are encapsulated with water in commercially obtainable pressure-tight measuring capsules. In the keratin/water system, a high water vapor pressure from which the HP-DSC analysis derives builds up in the encapsulated steel crucibles on heating to >100° C. The crucial difference between the HP-DSC thermograms of human hair fibers and normal DSC thermograms is that the endothermal peaks which reproduce the transition point and the transition enthalpy are shifted by ca. 90° C. to lower temperatures. This derives from the fact that, after diffusing into the hair fibers, the water reduces protein stability by weakening and splitting hydrogen bridge bonds and salt bonds so that the “gluing temperature” of the keratins is reduced. If only hydrogen bridges and salt bridges are dissolved by the supercontracting agent, such as water, the thermal effect is reversible (supercontraction). However, the process becomes irreversible when covalent bonds, such as disulfide bridges for example, are split. […]
as §3

[3] = system: Human hair (Alkinco 6634); assay: HP-DSC keratin melting point after aftertreatment with conditioner (Application Example 3.1) containing pyridoxine in various concentrations
Text: as §1, §2, §3

[4] = Fastness to washing of oxidation hair color, overall color difference DE* after 6 washes; design: species or system human; conditions: colored (Poly Diadem 718), 5 mins. rinse (Application Example 3.2) containing 2% active substance, washed 6x, smaller DE* = higher fastness
Procedure: Human hair fibers (Kerling Naturweiβ) were used. The hair fibers were intentionally damaged at their tips (2× blonding and 2× permanent waving) in order to simulate seriously damaged hair. […] After rinsing and drying, […] measurements (hair shafts and tips separated) were carried out and were repeated after 6 washes. […] The smaller DE* is, the smaller the loss of color by shampooing and the higher the fastness to washing.

SMILES | Keratin melting point for Alkinco 6634 [1] | Keratin melting point for Alkinco 6633 [2] | Keratin melting point Alkinco 6634 ([3]; conditioner (Application Example 3.1) + 0.2% vitamin B6, 2 mins. aftertreatment of permanent-waved hair) | Keratin melting point Alkinco 6634 ([3]; conditioner (Application Example 3.1) + 0.5% vitamin B6, 2 mins. aftertreatment of permanent-waved hair) | Keratin melting point Alkinco 6634 ([3]; conditioner (Application Example 3.1) + 1.0% vitamin B6, 2 mins. aftertreatment of permanent-waved hair) | significance of (re)structuring effect by comparison with the reference sample ([3]; conditioner + 0.2% vitamin B6, Alkinco 6634) | increase in melting point ([2]; Alkinco 6633, 1% in water, versus permanent-waved reference sample, not statistically highly significant) | DE* for normal weathered shafts [4] | DE* for seriously damaged tips ([4]; tips damaged 2x blonding and 2x permanent waving)
Cc1ncc(CO)c(C=O)c1O [Pyridoxal, pyridoxal] | 152 °C | 147.7 °C |  |  |  |  |  |  | 
Cc1ncc(COP(=O)(O)O)c(C=O)c1O [Pyridoxal-5-phosphate, pyridoxal-5′-phosphate] | 152.7 °C | 148.3 °C |  |  |  |  |  |  | 
Cc1ncc(CO)c(CN)c1O [Pyridoxamine, pyridoxamine] | 152.2 °C | 147.9 °C |  |  |  |  |  |  | 
Cc1ncc(CO)c(CO)c1O [Pyridoxine, pyridoxine] | 152.1 °C | 144* ° C. | 146.2 °C | 146.5 °C | 147.4 °C | satistically significant | 0.5 °C | 1.8 | 5.8
